Test results: patent publication US6673812B1, “Preventives/remedies for glaucoma” (Senju Pharmaceutical Co., Ltd., priority 1998, dated 2004)

Tested on: Japanese white rabbits
Assay: Ophthalmic disorder caused by 8-time-a-day instillation to white rabbits: macroscopic observation of anterior segment of the eye
Assay type: in vivo, rabbit
Set-up: scale not given here
Conditions: mean of three eyes
Protocol: The test drugs, Compound A and Compound C, were each dissolved in the following base at a concentration of 0.125, 0.25, 0.5 and 1.0% and adjusted to pH 7 for use in this experiment. [table] Japanese white rabbits (body weight about 2 kg) purchased from Japan Laboratory Animals, INC. were used. These animals were bred in a breeding chamber set to temperature 23±3° C., humidity 55±10% and fed on limited amount of 100 g a day of a solid feed (Labo R Stock, Nihon-Nosan Kogyo K.K.). They were allowed free access to tap water. Instillation: Using a micropipet, each test drug (100 μl) was instilled into the right eye of each animal 8 times at one hour intervals. Into the left eye was instilled a base in the same manner. Observation: anterior segment of the eye was macroscopically observed before instillation and 30 min after 2nd, 4th, 6th and 8th administrations, according to the macroscopic criteria for ocular lesions as shown in Table 1 (Naruyuki Fukui, […] no Rinshou 4, 277-289, 1970). In addition, corneal staining spot was observed before instillation and after 8th administration. [table]

[1] = 0.125%, 30 min after 2nd instillation
[2] = 0.125%, 30 min after 4th instillation
[3] = 0.125%, 30 min after 6th instillation
[4] = 0.125%, 30 min after 8th instillation
[5] = 0.25%, 30 min after 2nd instillation
[6] = 0.25%, 30 min after 4th instillation
[7] = 0.25%, 30 min after 6th instillation
[8] = 0.25%, 30 min after 8th instillation
[9] = 0.5%, 30 min after 2nd instillation
[10] = 0.5%, 30 min after 4th instillation
[11] = 0.5%, 30 min after 6th instillation
[12] = 0.5%, 30 min after 8th instillation
[13] = 1.0%, 30 min after 2nd instillation
[14] = 1.0%, 30 min after 4th instillation
[15] = 1.0%, 30 min after 6th instillation
[16] = 1.0%, 30 min after 8th instillation

Score of ocular lesions: Conjunctiva Bulbar redness [1]: 0 | Score of ocular lesions: Conjunctiva Discharge [1]: 0 | Score of ocular lesions: Conjunctiva Nictitating membrane [1]: 0 | Score of ocular lesions: Conjunctiva Palpebral edema [1]: 0 | Score of ocular lesions: Conjunctiva Palpebral redness [1]: 0 | Score of ocular lesions: Cornea Area [1]: 0 | Score of ocular lesions: Cornea Degree [1]: 0 | Score of ocular lesions: Iris Values [1]: 0 | Score of ocular lesions: Total score [1]: 0 | Score of ocular lesions: Conjunctiva Bulbar redness [2]: 0.50 | Score of ocular lesions: Conjunctiva Discharge [2]: 0.17 | Score of ocular lesions: Conjunctiva Nictitating membrane [2]: 0.33 | Score of ocular lesions: Conjunctiva Palpebral edema [2]: 0 | Score of ocular lesions: Conjunctiva Palpebral redness [2]: 0 | Score of ocular lesions: Cornea Area [2]: 0 | Score of ocular lesions: Cornea Degree [2]: 0 | Score of ocular lesions: Iris Values [2]: 0 | Score of ocular lesions: Total score [2]: 0.83 | Score of ocular lesions: Conjunctiva Bulbar redness [3]: 0.17 | Score of ocular lesions: Conjunctiva Discharge [3]: 0.50 | Score of ocular lesions: Conjunctiva Nictitating membrane [3]: 0.33 | Score of ocular lesions: Conjunctiva Palpebral edema [3]: 0.17 | Score of ocular lesions: Conjunctiva Palpebral redness [3]: 0.17 | Score of ocular lesions: Cornea Area [3]: 0 | Score of ocular lesions: Cornea Degree [3]: 0 | Score of ocular lesions: Iris Values [3]: 0 | Score of ocular lesions: Total score [3]: 0.84 | Score of ocular lesions: Conjunctiva Bulbar redness [4]: 0.50 | Score of ocular lesions: Conjunctiva Discharge [4]: 0 | Score of ocular lesions: Conjunctiva Nictitating membrane [4]: 0.50 | Score of ocular lesions: Conjunctiva Palpebral edema [4]: 0.33 | Score of ocular lesions: Conjunctiva Palpebral redness [4]: 0.33 | Score of ocular lesions: Cornea Area [4]: 0 | Score of ocular lesions: Cornea Degree [4]: 0 | Score of ocular lesions: Iris Values [4]: 0 | Score of ocular lesions: Total score [4]: 1.66 | Score of ocular lesions: Conjunctiva Bulbar redness (0.125%, Before instillation): 0 | Score of ocular lesions: Conjunctiva Discharge (0.125%, Before instillation): 0 | Score of ocular lesions: Conjunctiva Nictitating membrane (0.125%, Before instillation): 0 | Score of ocular lesions: Conjunctiva Palpebral edema (0.125%, Before instillation): 0 | Score of ocular lesions: Conjunctiva Palpebral redness (0.125%, Before instillation): 0 | Score of ocular lesions: Cornea Area (0.125%, Before instillation): 0 | Score of ocular lesions: Cornea Degree (0.125%, Before instillation): 0 | Score of ocular lesions: Iris Values (0.125%, Before instillation): 0 | Score of ocular lesions: Total score (0.125%, Before instillation): 0 | Score of ocular lesions: Conjunctiva Bulbar redness [5]: 0.33 | Score of ocular lesions: Conjunctiva Discharge [5]: 0 | Score of ocular lesions: Conjunctiva Nictitating membrane [5]: 0.33 | Score of ocular lesions: Conjunctiva Palpebral edema [5]: 0 | Score of ocular lesions: Conjunctiva Palpebral redness [5]: 0 | Score of ocular lesions: Cornea Area [5]: 0 | Score of ocular lesions: Cornea Degree [5]: 0 | Score of ocular lesions: Iris Values [5]: 0 | Score of ocular lesions: Total score [5]: 0.66 | Score of ocular lesions: Conjunctiva Bulbar redness [6]: 0.33 | Score of ocular lesions: Conjunctiva Discharge [6]: 0 | Score of ocular lesions: Conjunctiva Nictitating membrane [6]: 0.50 | Score of ocular lesions: Conjunctiva Palpebral edema [6]: 0 | Score of ocular lesions: Conjunctiva Palpebral redness [6]: 0.33 | Score of ocular lesions: Cornea Area [6]: 0 | Score of ocular lesions: Cornea Degree [6]: 0 | Score of ocular lesions: Iris Values [6]: 0 | Score of ocular lesions: Total score [6]: 1.50 | Score of ocular lesions: Conjunctiva Bulbar redness [7]: 0.50 | Score of ocular lesions: Conjunctiva Discharge [7]: 0.67 | Score of ocular lesions: Conjunctiva Nictitating membrane [7]: 0.33 | Score of ocular lesions: Conjunctiva Palpebral edema [7]: 0.17 | Score of ocular lesions: Conjunctiva Palpebral redness [7]: 0.33 | Score of ocular lesions: Cornea Area [7]: 0 | Score of ocular lesions: Cornea Degree [7]: 0 | Score of ocular lesions: Iris Values [7]: 0 | Score of ocular lesions: Total score [7]: 2.83 | Score of ocular lesions: Conjunctiva Bulbar redness [8]: 0.67 | Score of ocular lesions: Conjunctiva Discharge [8]: 1.00 | Score of ocular lesions: Conjunctiva Nictitating membrane [8]: 1.33 | Score of ocular lesions: Conjunctiva Palpebral edema [8]: 0 | Score of ocular lesions: Conjunctiva Palpebral redness [8]: 0 | Score of ocular lesions: Cornea Area [8]: 0 | Score of ocular lesions: Cornea Degree [8]: 0 | Score of ocular lesions: Iris Values [8]: 0 | Score of ocular lesions: Total score [8]: 3.00 | Score of ocular lesions: Conjunctiva Bulbar redness (0.25%, Before instillation): 0 | Score of ocular lesions: Conjunctiva Discharge (0.25%, Before instillation): 0 | Score of ocular lesions: Conjunctiva Nictitating membrane (0.25%, Before instillation): 0 | Score of ocular lesions: Conjunctiva Palpebral edema (0.25%, Before instillation): 0 | Score of ocular lesions: Conjunctiva Palpebral redness (0.25%, Before instillation): 0 | Score of ocular lesions: Cornea Area (0.25%, Before instillation): 0 | Score of ocular lesions: Cornea Degree (0.25%, Before instillation): 0 | Score of ocular lesions: Iris Values (0.25%, Before instillation): 0 | Score of ocular lesions: Total score (0.25%, Before instillation): 0 | Score of ocular lesions: Conjunctiva Bulbar redness [9]: 0.50 | Score of ocular lesions: Conjunctiva Discharge [9]: 0 | Score of ocular lesions: Conjunctiva Nictitating membrane [9]: 0.50 | Score of ocular lesions: Conjunctiva Palpebral edema [9]: 0 | Score of ocular lesions: Conjunctiva Palpebral redness [9]: 0 | Score of ocular lesions: Cornea Area [9]: 0 | Score of ocular lesions: Cornea Degree [9]: 0 | Score of ocular lesions: Iris Values [9]: 0 | Score of ocular lesions: Total score [9]: 1.00 | Score of ocular lesions: Conjunctiva Bulbar redness [10]: 0.50 | Score of ocular lesions: Conjunctiva Discharge [10]: 0.17 | Score of ocular lesions: Conjunctiva Nictitating membrane [10]: 0.33 | Score of ocular lesions: Conjunctiva Palpebral edema [10]: 0.33 | Score of ocular lesions: Conjunctiva Palpebral redness [10]: 0.33 | Score of ocular lesions: Cornea Area [10]: 0 | Score of ocular lesions: Cornea Degree [10]: 0 | Score of ocular lesions: Iris Values [10]: 0.33 | Score of ocular lesions: Total score [10]: 1.99 | Score of ocular lesions: Conjunctiva Bulbar redness [11]: 0.67 | Score of ocular lesions: Conjunctiva Discharge [11]: 1.00 | Score of ocular lesions: Conjunctiva Nictitating membrane [11]: 1.00 | Score of ocular lesions: Conjunctiva Palpebral edema [11]: 0.33 | Score of ocular lesions: Conjunctiva Palpebral redness [11]: 0.33 | Score of ocular lesions: Cornea Area [11]: 0 | Score of ocular lesions: Cornea Degree [11]: 0 | Score of ocular lesions: Iris Values [11]: 0 | Score of ocular lesions: Total score [11]: 3.83 | Score of ocular lesions: Conjunctiva Bulbar redness [12]: 1.00 | Score of ocular lesions: Conjunctiva Discharge [12]: 2.00 | Score of ocular lesions: Conjunctiva Nictitating membrane [12]: 1.00 | Score of ocular lesions: Conjunctiva Palpebral edema [12]: 2.83 | Score of ocular lesions: Conjunctiva Palpebral redness [12]: 2.00 | Score of ocular lesions: Cornea Area [12]: 0 | Score of ocular lesions: Cornea Degree [12]: 0 | Score of ocular lesions: Iris Values [12]: 0.67 | Score of ocular lesions: Total score [12]: 9.50 | Score of ocular lesions: Conjunctiva Bulbar redness (0.5%, Before instillation): 0 | Score of ocular lesions: Conjunctiva Discharge (0.5%, Before instillation): 0 | Score of ocular lesions: Conjunctiva Nictitating membrane (0.5%, Before instillation): 0 | Score of ocular lesions: Conjunctiva Palpebral edema (0.5%, Before instillation): 0 | Score of ocular lesions: Conjunctiva Palpebral redness (0.5%, Before instillation): 0 | Score of ocular lesions: Cornea Area (0.5%, Before instillation): 0 | Score of ocular lesions: Cornea Degree (0.5%, Before instillation): 0 | Score of ocular lesions: Iris Values (0.5%, Before instillation): 0 | Score of ocular lesions: Total score (0.5%, Before instillation): 0 | Score of ocular lesions: Conjunctiva Bulbar redness [13]: 0.50 | Score of ocular lesions: Conjunctiva Discharge [13]: 0 | Score of ocular lesions: Conjunctiva Nictitating membrane [13]: 0.50 | Score of ocular lesions: Conjunctiva Palpebral edema [13]: 0 | Score of ocular lesions: Conjunctiva Palpebral redness [13]: 0.17 | Score of ocular lesions: Cornea Area [13]: 0 | Score of ocular lesions: Cornea Degree [13]: 0 | Score of ocular lesions: Iris Values [13]: 0 | Score of ocular lesions: Total score [13]: 1.17 | Score of ocular lesions: Conjunctiva Bulbar redness [14]: 0.50 | Score of ocular lesions: Conjunctiva Discharge [14]: 0 | Score of ocular lesions: Conjunctiva Nictitating membrane [14]: 0.50 | Score of ocular lesions: Conjunctiva Palpebral edema [14]: 0.17 | Score of ocular lesions: Conjunctiva Palpebral redness [14]: 0.50 | Score of ocular lesions: Cornea Area [14]: 0 | Score of ocular lesions: Cornea Degree [14]: 0 | Score of ocular lesions: Iris Values [14]: 0.67 | Score of ocular lesions: Total score [14]: 2.34 | Score of ocular lesions: Conjunctiva Bulbar redness [15]: 0.67 | Score of ocular lesions: Conjunctiva Discharge [15]: 0.33 | Score of ocular lesions: Conjunctiva Nictitating membrane [15]: 0.83 | Score of ocular lesions: Conjunctiva Palpebral edema [15]: 0.50 | Score of ocular lesions: Conjunctiva Palpebral redness [15]: 0.50 | Score of ocular lesions: Cornea Area [15]: 0 | Score of ocular lesions: Cornea Degree [15]: 0 | Score of ocular lesions: Iris Values [15]: 1.00 | Score of ocular lesions: Total score [15]: 3.83 | Score of ocular lesions: Conjunctiva Bulbar redness [16]: 2.00 | Score of ocular lesions: Conjunctiva Discharge [16]: 2.33 | Score of ocular lesions: Conjunctiva Nictitating membrane [16]: 1.67 | Score of ocular lesions: Conjunctiva Palpebral edema [16]: 3.33 | Score of ocular lesions: Conjunctiva Palpebral redness [16]: 2.33 | Score of ocular lesions: Cornea Area [16]: 0 | Score of ocular lesions: Cornea Degree [16]: 0 | Score of ocular lesions: Iris Values [16]: 1.00 | Score of ocular lesions: Total score [16]: 12.66 | Score of ocular lesions: Conjunctiva Bulbar redness (1.0%, Before instillation): 0 | Score of ocular lesions: Conjunctiva Discharge (1.0%, Before instillation): 0 | Score of ocular lesions: Conjunctiva Nictitating membrane (1.0%, Before instillation): 0 | Score of ocular lesions: Conjunctiva Palpebral edema (1.0%, Before instillation): 0 | Score of ocular lesions: Conjunctiva Palpebral redness (1.0%, Before instillation): 0 | Score of ocular lesions: Cornea Area (1.0%, Before instillation): 0 | Score of ocular lesions: Cornea Degree (1.0%, Before instillation): 0 | Score of ocular lesions: Iris Values (1.0%, Before instillation): 0 | Score of ocular lesions: Total score (1.0%, Before instillation): 0
SMILES: C[C@@H](N)c1ccc(C(=O)Nc2ccncc2)cc1.Cl.Cl [Compound C, (R)-(+)-N-(4-pyridyl)-4-(1-aminoethyl)benzamide 2HCl]
